Laboratory results from PubChem BioAssay AID1963862 (Molecular Pharmacology Branch, DTP, NCI, 2024).

System: KRAS patient-derived spheroids with HUVEC/MSC, viability
Experiment: Anticancer human tumor 941728-121-R-J1-PDC patient-derived lung adenocarcinoma cell line growth inhibition [KRAS2]
Conditions: for IC50: curve of first compound; for viability, T/C: stronger effect = lower value
In short: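 Combination screen of spheroid viability in tumor-cell co-cultures with endothelial (HUVEC) and mesenchymal stem cell stroma. Each agent was tested in half-log dilutions, topping at clinical Cmax or at 10 microM without a known Cmax.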

[1] = second compound 0.1 µM, first compound 0.0316 µM
[2] = second compound 0.1 µM, first compound 0.1 µM
[3] = second compound 0.1 µM, first compound 0.316 µM
[4] = second compound 0.1 µM, first compound 1 µM
[5] = second compound 0.1 µM, first compound 3.16 µM
[6] = second compound 0.1 µM, first compound 10 µM
[7] = second compound 0.316 µM, first compound 0.0316 µM
[8] = second compound 0.316 µM, first compound 0.1 µM
[9] = second compound 0.316 µM, first compound 0.316 µM
[10] = second compound 0.316 µM, first compound 1 µM
[11] = second compound 0.316 µM, first compound 3.16 µM
[12] = second compound 0.316 µM, first compound 10 µM
[13] = second compound 1 µM, first compound 0.0316 µM
[14] = second compound 1 µM, first compound 0.1 µM
[15] = second compound 1 µM, first compound 0.316 µM
[16] = second compound 1 µM, first compound 1 µM
[17] = second compound 1 µM, first compound 3.16 µM
[18] = second compound 1 µM, first compound 10 µM
[19] = second compound 3.16 µM, first compound 0.0316 µM
[20] = second compound 3.16 µM, first compound 0.1 µM
[21] = second compound 3.16 µM, first compound 0.316 µM
[22] = second compound 3.16 µM, first compound 1 µM
[23] = second compound 3.16 µM, first compound 3.16 µM
[24] = second compound 3.16 µM, first compound 10 µM
[25] = second compound 10 µM, first compound 0.0316 µM
[26] = second compound 10 µM, first compound 0.1 µM
[27] = second compound 10 µM, first compound 0.316 µM
[28] = second compound 10 µM, first compound 1 µM
[29] = second compound 10 µM, first compound 3.16 µM
[30] = second compound 10 µM, first compound 10 µM
[31] = second compound 0.1 µM, first compound 0.000316 µM
[32] = second compound 0.1 µM, first compound 0.001 µM
[33] = second compound 0.1 µM, first compound 0.00316 µM
[34] = second compound 0.1 µM, first compound 0.01 µM
[35] = second compound 0.316 µM, first compound 0.000316 µM
[36] = second compound 0.316 µM, first compound 0.001 µM
[37] = second compound 0.316 µM, first compound 0.00316 µM
[38] = second compound 0.316 µM, first compound 0.01 µM
[39] = second compound 1 µM, first compound 0.000316 µM
[40] = second compound 1 µM, first compound 0.001 µM
[41] = second compound 1 µM, first compound 0.00316 µM
[42] = second compound 1 µM, first compound 0.01 µM
[43] = second compound 3.16 µM, first compound 0.000316 µM
[44] = second compound 3.16 µM, first compound 0.001 µM
[45] = second compound 3.16 µM, first compound 0.00316 µM
[46] = second compound 3.16 µM, first compound 0.01 µM
[47] = second compound 10 µM, first compound 0.000316 µM
[48] = second compound 10 µM, first compound 0.001 µM
[49] = second compound 10 µM, first compound 0.00316 µM
[50] = second compound 10 µM, first compound 0.01 µM
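Also: spheroids exposed to agents for seven days before readout.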

Compound	IC50 (second compound 0.1 µM)	IC50 (second compound 0.316 µM)	IC50 (second compound 1 µM)	IC50 (second compound 3.16 µM)	IC50 (second compound 10 µM)	viability, T/C [1]	viability, T/C [2]	viability, T/C [3]	viability, T/C [4]	viability, T/C [7]	viability, T/C [8]	viability, T/C [9]	viability, T/C [10]	viability, T/C [13]	viability, T/C [14]	viability, T/C [15]	viability, T/C [19]	viability, T/C [20]	viability, T/C [25]	viability, T/C [26]	further results
CC(C)NCC(C(=O)N1CCN(c2ncnc3c2C(C)CC3O)CC1)c1ccc(Cl)cc1 (stereo not given) + CC1OCC2(CCN(c3cnc(Sc4ccnc(N)c4Cl)c(N)n3)CC2)C1N	< 31.6 nM	< 31.6 nM	< 31.6 nM	< 31.6 nM	< 31.6 nM	38.3%	40.1%	29.9%	24.9%	34%	31.9%	25.3%	20.9%	26.2%	26.8%	23.7%	25.8%	22.1%	19.1%	17.9%	viability, T/C [5]: 19.1%; viability, T/C [6]: 10.4%; viability, T/C [11]: 15.1%; viability, T/C [12]: 8.83%; viability, T/C [16]: 16.7%; viability, T/C [17]: 12.8%; viability, T/C [18]: 4.1%; viability, T/C [21]: 20.8%; viability, T/C [22]: 14.3%; viability, T/C [23]: 10.7%; viability, T/C [24]: 3.56%; viability, T/C [27]: 17.2%; viability, T/C [28]: 11.2%; viability, T/C [29]: 4.83%; viability, T/C [30]: 1.91%
CC(C)n1nc(-c2ccc3oc(N)nc3c2)c2c(N)ncnc21 + CC1OCC2(CCN(c3cnc(Sc4ccnc(N)c4Cl)c(N)n3)CC2)C1N	< 0.316 nM	< 0.316 nM	< 0.316 nM	< 0.316 nM	< 0.316 nM	8.84%	6.47%	–	–	9.93%	5.71%	–	–	8.27%	5.69%	–	3.72%	3.13%	3.77%	1.91%	viability, T/C [31]: 40.7%; viability, T/C [32]: 30.6%; viability, T/C [33]: 17.2%; viability, T/C [34]: 12.1%; viability, T/C [35]: 31%; viability, T/C [36]: 24.8%; viability, T/C [37]: 16.8%; viability, T/C [38]: 11.5%; viability, T/C [39]: 25.2%; viability, T/C [40]: 20.3%; viability, T/C [41]: 12%; viability, T/C [42]: 8.84%; viability, T/C [43]: 17.6%; viability, T/C [44]: 16.4%; viability, T/C [45]: 9.88%; viability, T/C [46]: 5.58%; viability, T/C [47]: 11.4%; viability, T/C [48]: 11.2%; viability, T/C [49]: 6.08%; viability, T/C [50]: 4.41%
CC1(C)CCC(CN2CCN(c3ccc(C(=O)NS(=O)(=O)c4ccc(NCC5CCOCC5)c([N+](=O)[O-])c4)c(Oc4cnc5[nH]ccc5c4)c3)CC2)=C(c2ccc(Cl)cc2)C1 + CC1OCC2(CCN(c3cnc(Sc4ccnc(N)c4Cl)c(N)n3)CC2)C1N	< 31.6 nM	< 31.6 nM	< 31.6 nM	< 31.6 nM	< 31.6 nM	38.4%	30.5%	32.1%	31.2%	32.1%	24.3%	29%	34.3%	29%	26.9%	26.1%	28.4%	24.7%	20.1%	23.8%	viability, T/C [5]: 6.63%; viability, T/C [6]: 2.32%; viability, T/C [11]: 5.9%; viability, T/C [12]: 1.62%; viability, T/C [16]: 27.3%; viability, T/C [17]: 5.85%; viability, T/C [18]: 2.94%; viability, T/C [21]: 23.7%; viability, T/C [22]: 20.8%; viability, T/C [23]: 5.87%; viability, T/C [24]: 1.91%; viability, T/C [27]: 23.2%; viability, T/C [28]: 19.2%; viability, T/C [29]: 3.98%; viability, T/C [30]: 0.4%
CCN1CCN(Cc2ccc(Nc3ncc(F)c(-c4cc(F)c5nc(C)n(C(C)C)c5c4)n3)nc2)CC1 + CC1OCC2(CCN(c3cnc(Sc4ccnc(N)c4Cl)c(N)n3)CC2)C1N	< 3.16 nM	< 3.16 nM	< 3.16 nM	< 3.16 nM	< 3.16 nM	36.2%	35.9%	37.5%	44.4%	30.5%	31.7%	24.3%	26%	29.1%	28.5%	23.1%	24.2%	24.4%	19.6%	15.6%	viability, T/C [33]: 47.5%; viability, T/C [34]: 40.5%; viability, T/C [37]: 35.3%; viability, T/C [38]: 31.2%; viability, T/C [41]: 32.5%; viability, T/C [42]: 29.4%; viability, T/C [16]: 17.5%; viability, T/C [45]: 25.8%; viability, T/C [46]: 25.4%; viability, T/C [21]: 16.5%; viability, T/C [22]: 13.5%; viability, T/C [49]: 22.9%; viability, T/C [50]: 22.7%; viability, T/C [27]: 9.09%; viability, T/C [28]: 9.79%
COc1cc2nccc(Oc3ccc(NC(=O)C4(C(=O)Nc5ccc(F)cc5)CC4)cc3)c2cc1OC + CC1OCC2(CCN(c3cnc(Sc4ccnc(N)c4Cl)c(N)n3)CC2)C1N	< 31.6 nM	< 31.6 nM	< 31.6 nM	< 31.6 nM	< 31.6 nM	48.9%	40%	31.5%	29.4%	28.8%	26.2%	29%	27.8%	25.3%	25.9%	24.1%	25.3%	20.1%	20.7%	14.8%	viability, T/C [5]: 34.2%; viability, T/C [6]: 26.9%; viability, T/C [11]: 14.6%; viability, T/C [12]: 16.6%; viability, T/C [16]: 15.5%; viability, T/C [17]: 8.65%; viability, T/C [18]: 7.11%; viability, T/C [21]: 11.7%; viability, T/C [22]: 12%; viability, T/C [23]: 7.91%; viability, T/C [24]: 4.69%; viability, T/C [27]: 12.2%; viability, T/C [28]: 8.99%; viability, T/C [29]: 4.63%; viability, T/C [30]: 4.36%
Cn1ncnc1[C@H]1c2n[nH]c(=O)c3cc(F)cc(c23)N[C@@H]1c1ccc(F)cc1 + CC1OCC2(CCN(c3cnc(Sc4ccnc(N)c4Cl)c(N)n3)CC2)C1N	0.334 nM	< 0.316 nM	< 0.316 nM	< 0.316 nM	< 0.316 nM	44.2%	46.5%	–	–	28.1%	28.1%	–	–	19.2%	26.4%	–	14.4%	19.3%	18.3%	14.7%	viability, T/C [31]: 49.5%; viability, T/C [32]: 50%; viability, T/C [33]: 43.2%; viability, T/C [34]: 44.7%; viability, T/C [35]: 37.7%; viability, T/C [36]: 28.5%; viability, T/C [37]: 26.1%; viability, T/C [38]: 32.7%; viability, T/C [39]: 28.7%; viability, T/C [40]: 25.9%; viability, T/C [41]: 22.2%; viability, T/C [42]: 20.6%; viability, T/C [43]: 26.6%; viability, T/C [44]: 24.8%; viability, T/C [45]: 25.3%; viability, T/C [46]: 20%; viability, T/C [47]: 23.8%; viability, T/C [48]: 21.5%; viability, T/C [49]: 19.9%; viability, T/C [50]: 18.9%
